Results on 37 compounds are retold here after US11033539B2, “Compounds of formulas (VII), (VIII), (IX), (XI), (XII), (XIII), and (XIV) as muscarinic receptor 4(M4) antagonists for treating neurological diseases” (Neurocrine Biosciences, Inc., priority 2015, dated 2021).

SMILES strings stand for the structures. Like-named read-outs stand apart in the source and are kept apart here.

Usually Ki stands for the dissociation constant of the complex between target and ligand, obtained from inhibition or displacement.

The target in this experiment is human M4 receptor (Homo sapiens (Human), UniProt P08173). The experiment is described as follows: Radioligand (tritiated N-methylscopolamine) binding assay, M4. The procedure, abridged:
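Compounds were tested at twelve concentrations ranging from 10 μM to […] against 1.5 nM radioligand on CHO cell membranes expressing each subtype. Incubation lasts 90 min at 37 °C in HEPES-buffered saline with Mg2+ and EDTA, pH 7.4, and filtration then separates bound radioligand.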

Where [1] appears, read: Ki against the M4 receptor, membranes from CHO cells expressing human M4, tritiated N-methylscopolamine 1.5 nM, read-out: Ki.

human M4 receptor, sequence (P08173 whole entry): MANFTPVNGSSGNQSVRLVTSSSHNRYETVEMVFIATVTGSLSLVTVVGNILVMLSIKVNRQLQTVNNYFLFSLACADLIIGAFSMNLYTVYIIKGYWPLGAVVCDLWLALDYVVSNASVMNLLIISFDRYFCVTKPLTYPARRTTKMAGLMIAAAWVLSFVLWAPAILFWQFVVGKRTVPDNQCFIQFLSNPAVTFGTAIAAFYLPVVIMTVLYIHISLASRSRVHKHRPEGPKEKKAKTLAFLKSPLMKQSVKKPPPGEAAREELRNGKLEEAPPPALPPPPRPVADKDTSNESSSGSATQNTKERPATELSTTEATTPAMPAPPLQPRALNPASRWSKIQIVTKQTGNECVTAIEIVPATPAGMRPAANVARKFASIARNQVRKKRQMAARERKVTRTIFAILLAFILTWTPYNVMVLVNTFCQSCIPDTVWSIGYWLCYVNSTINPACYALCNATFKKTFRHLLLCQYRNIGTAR

In turn, `N#CC1(c2ccccc2)CCN(C(=O)NCCC2CCN(Cc3ccccc3)CC2)CC1` [8-33, N-[2-(1-benzylpiperidin-4-yl)ethyl]-4-cyano-4-phenylpiperidine-1-carboxamide] registered a Ki of 100 to 1000 nM. Turning to `O=C(NCCC1CCN(Cc2ccccc2)CC1)N1CCN(c2ccccc2F)CC1` [8-34, N-[2-(1-benzylpiperidin-4-yl)ethyl]-4-(2-fluorophenyl)piperazine-1-carboxamide], under setting [1], the Ki fell in the range of 100 to 1000 nM. On the same count and under the same terms, for `O=C(NCCC1CCN(Cc2ccccc2)CC1)N1CCN(c2ccc(F)cc2)CC1` [8-35, N-[2-(1-benzylpiperidin-4-yl)ethyl]-4-(4-fluorophenyl)piperazine-1-carboxamide] the value was 100 to 1000 nM; for `CC(=O)c1ccc(N2CCN(C(=O)NCCC3CCN(Cc4ccccc4)CC3)CC2)cc1` [8-36, 4-(4-acetylphenyl)-N-[2-(1-benzylpiperidin-4-yl)ethyl]piperazine-1-carboxamide], 100 to 1000 nM. As for `CCN1CCN(C2CCN(C(=O)NCCC3CCN(Cc4ccccc4)CC3)CC2)CC1` [8-37, N-[2-(1-benzylpiperidin-4-yl)ethyl]-4-(4-ethylpiperazin-1-yl)piperidine-1-carboxamide], under setting [1], the inhibition constant (Ki) fell in the range of 100 to 1000 nM. Still for that read-out and setting: for `O=C(NCCC1CCN(Cc2ccccc2)CC1)N1CCC(c2ccccc2)CC1` [8-38, N-[2-(1-benzylpiperidin-4-yl)ethyl]-4-phenylpiperidine-1-carboxamide] the value was 100 to 1000 nM. The same measure, in the same setting: for `O=C(NCCC1CCN(Cc2ccccc2)CC1)NC1CCN(c2ccc(F)cc2)CC1` [8-39, 1-[2-(1-benzylpiperidin-4-yl)ethyl]-3-[1-(4-fluorophenyl)piperidin-4-yl]urea] the value was 100 to 1000 nM. On the same count and under the same terms, for `N#Cc1cccc(N2CCC(NC(=O)NCCC3CCN(Cc4ccccc4)CC3)CC2)c1` [8-40, 3-[2-(1-benzylpiperidin-4-yl)ethyl]-1-[1-(3-cyanophenyl)piperidin-4-yl]urea] the value was 100 to 1000 nM; for `O=C(NCCC1CCN(Cc2ccccc2)CC1)Nc1ccc(Oc2ccccc2)cc1` [8-41, 3-[2-(1-benzylpiperidin-4-yl)ethyl]-1-(4-phenoxyphenyl)urea], 100 to 1000 nM; for `COc1ccccc1C1(O)CCN(C(=O)NCCC2CCN(Cc3ccccc3)CC2)CC1` [8-42, N-[2-(1-benzylpiperidin-4-yl)ethyl]-4-hydroxy-4-(2-methoxyphenyl)piperidine-1-carboxamide], 100 to 1000 nM. For the compound `Cc1ccc(N2CCN(C(=O)NCCC3CCN(Cc4ccccc4)CC3)CC2)c(CO)c1` [8-43, N-[2-(1-benzylpiperidin-4-yl)ethyl]-4-[2-(hydroxymethyl)-4-methylphenyl]piperazine-1-carboxamide], the Ki under setting [1] was 100 to 1000 nM.

With `O=C(NCCC1CCN(Cc2ccccc2)CC1)N1CCC(N2Cc3ccccc3NC2=O)CC1` [8-44, N-[2-(1-benzylpiperidin-4-yl)ethyl]-4-(2-oxo-1,2,3,4-tetrahydroquinazolin-3-yl)piperidine-1-carboxamide], the Ki under setting [1] lay in the range of 100 to 1000 nM. The same measure, in the same setting: for `N#Cc1ccc(N2CCN(C(=O)NCCC3CCN(Cc4ccccc4)CC3)CC2)nc1` [8-45, N-[2-(1-benzylpiperidin-4-yl)ethyl]-4-(5-cyanopyridin-2-yl)piperazine-1-carboxamide] the value was 100 to 1000 nM; for `O=C(NCCC1CCN(Cc2ccccc2)CC1)N1CCC(n2nnc3ccccc32)CC1` [8-46, 4-(1H-1,2,3-benzotriazol-1-yl)-N-[2-(1-benzylpiperidin-4-yl)ethyl]piperidine-1-carboxamide], 100 to 1000 nM. On the same count and under the same terms, under `O=C(NCCC1CCN(Cc2ccccc2)CC1)N1CCN(c2ncccc2Cl)CC1` [8-47, N-[2-(1-benzylpiperidin-4-yl)ethyl]-4-(3-chloropyridin-2-yl)piperazine-1-carboxamide] stands 100 to 1000 nM; under `O=C(c1ccc(-c2ccccc2)cc1)N(C1CC1)C1CCN(Cc2ccccc2)CC1` [9-2, N-(1-benzylpiperidin-4-yl)-N-cyclopropyl-4-phenylbenzamide], 100 to 1000 nM; under `O=C(C1CCN(c2ccc(OC(F)(F)F)cc2)CC1)N(CCO)CCC1CCN(Cc2ccccc2)CC1` [9-3, N-[2-(1-benzylpiperidin-4-yl)ethyl]-N-(2-hydroxyethyl)-1-[4-(trifluoromethoxy)phenyl]piperidine-4-carboxamide], 100 to 1000 nM. For `Cc1nc(-c2ccc(Cl)cc2)sc1C(=O)NCCC1CCN(Cc2ccccc2)CC1` [9-4, N-[2-(1-benzylpiperidin-4-yl)ethyl]-2-(4-chlorophenyl)-4-methyl-1,3-thiazole-5-carboxamide], under setting [1], the Ki lay within 100 to 1000 nM.

Consider `O=C(NCCC1(CO)CCN(Cc2ccccc2)CC1)C1CCN(c2cccc(OC(F)(F)F)c2)CC1` [9-11, N-{2-[1-benzyl-4-(hydroxymethyl)piperidin-4-yl]ethyl}-1-[3-(trifluoromethoxy)phenyl]piperidine-4-carboxamide], for which the Ki under setting [1] was 10 to 100 nM.

Consider `O=C(NCCC1CCN(Cc2ccccc2)CC1)c1ccc(-c2ccc(Cl)cc2)cc1F` [9-12, N-[2-(1-benzylpiperidin-4-yl)ethyl]-4-(4-chlorophenyl)-2-fluorobenzamide], for which the Ki under setting [1] is 10 to 100 nM.

For `O=C(NCCC1(CO)CCN(Cc2ccccc2)CC1)C1CCN(c2ccc(OC(F)(F)F)cc2)CC1` [9-13, N-{2-[1-benzyl-4-(hydroxymethyl)piperidin-4-yl]ethyl}-1-[4-(trifluoromethoxy)phenyl]piperidine-4-carboxamide], the Ki under setting [1] is 10 to 100 nM. Still for that read-out and setting: under `COC(=O)c1ccc(-c2ccc(C(=O)NCCC3CCN(Cc4ccccc4)CC3)cc2)cc1` [9-14, methyl 4-(4-{[2-(1-benzylpiperidin-4-yl)ethyl]carbamoyl}phenyl)benzoate] stands 10 to 100 nM; under `N#Cc1cc(N2CCC(C(=O)NC[C@H](O)C3CCN(Cc4ccccc4)CC3)CC2)ccc1F` [9-15, N-[(2R)-2-(1-benzylpiperidin-4-yl)-2-hydroxyethyl]-1-(3-cyano-4-fluorophenyl)piperidine-4-carboxamide], 10 to 100 nM; under `O=C(NCCC1CCN(Cc2ccccc2)CC1)c1ccc(-c2ccc(C(F)(F)F)cc2)cc1` [9-16, N-[2-(1-benzylpiperidin-4-yl)ethyl]-4-[4-(trifluoromethyl)phenyl]benzamide], 10 to 100 nM. Take `CN(CCNC(=O)C1CCN(c2ccc(OC(F)(F)F)cc2)CC1)[C@H]1CCN(Cc2ccccc2)C1` [9-17, N-(2-{[(3S)-1-benzylpyrrolidin-3-yl](methyl)amino}ethyl)-1-[4-(trifluoromethoxy)phenyl]piperidine-4-carboxamide]: the Ki under setting [1] lay within 10 to 100 nM.

For `CN(C(=O)c1ccc(Cl)c(-c2nc3ccccc3cc2C#N)c1)[C@@H]1CCN(C2CCCCC2)C1` [9-18, 4-chloro-3-(3-cyanoquinolin-2-yl)-N-[(3R)-1-cyclohexylpyrrolidin-3-yl]-N-methylbenzamide], the Ki under setting [1] fell in the range of 100 to 1000 nM.

For the compound `O=C(NCCN1CCC(O)(Cc2ccccc2)CC1)c1ccn2cc(-c3ccc(OC(F)(F)F)cc3)nc2c1` [9-19, N-[2-(4-benzyl-4-hydroxypiperidin-1-yl)ethyl]-2-[4-(trifluoromethoxy)phenyl]imidazo[1,2-a]pyridine-7-carboxamide], the Ki under setting [1] was in the range of 100 to 1000 nM. For `Cc1cc(Cl)c(-c2cc(C(=O)NCC[C@@H]3CCN(Cc4ccccc4)C3)ccc2Cl)cn1` [9-20, N-{2-[(3R)-1-benzylpyrrolidin-3-yl]ethyl}-4-chloro-3-(4-chloro-6-methylpyridin-3-yl)benzamide], the Ki under setting [1] lay within 100 to 1000 nM. Still for that read-out and setting: under `O=C(C1CCN(c2ncc(C(F)(F)F)cc2Cl)CC1)N1CCN(C2CCN(Cc3ccccc3)CC2)CC1` [9-21, 1-(1-benzylpiperidin-4-yl)-4-{1-[3-chloro-5-(trifluoromethyl)pyridin-2-yl]piperidine-4-carbonyl}piperazine] stands 10 to 100 nM; under `CN(CCNC(=O)C1CCN(c2cccc(OC(F)(F)F)c2)CC1)[C@@H]1CCN(Cc2ccccc2)C1` [9-22, N-(2-{[(3R)-1-benzylpyrrolidin-3-yl](methyl)amino}ethyl)-1-[3-(trifluoromethoxy)phenyl]piperidine-4-carboxamide], 10 to 100 nM; under `CN(C(=O)C1CCN(c2ccc(OC(F)(F)F)cc2)CC1)C1CCN(C2CCN(Cc3ccccc3)CC2)C1` (stereo not shown) [9-23, N-[1-(1-benzylpiperidin-4-yl)pyrrolidin-3-yl]-N-methyl-1-[4-(trifluoromethoxy)phenyl]piperidine-4-carboxamide], 10 to 100 nM.

As for `N#Cc1cc(N2CCC(C(=O)NCCC3(CO)CCN(Cc4ccccc4)CC3)CC2)ccc1F` [9-24, N-{2-[1-benzyl-4-(hydroxymethyl)piperidin-4-yl]ethyl}-1-(3-cyano-4-fluorophenyl)piperidine-4-carboxamide], the Ki under setting [1] fell in the range of 10 to 100 nM. On the same count and under the same terms, for `O=C(NCCC1CCN(Cc2ccccc2)CC1)c1ccn2cc(-c3ccc(OC(F)(F)F)cc3)nc2c1` [9-25, N-[2-(1-benzylpiperidin-4-yl)ethyl]-2-[4-(trifluoromethoxy)phenyl]imidazo[1,2-a]pyridine-7-carboxamide] the value was 10 to 100 nM; for `CN(CCNC(=O)C1CCN(c2ccc(OC(F)(F)F)cc2)CC1)[C@@H]1CCN(Cc2ccccc2)C1` [9-26, N-(2-{[(3R)-1-benzylpyrrolidin-3-yl](methyl)amino}ethyl)-1-[4-(trifluoromethoxy)phenyl]piperidine-4-carboxamide], 10 to 100 nM. For `O=C(NCCC1CCN(Cc2ccccc2)CC1O)C1CCN(c2ccc(OC(F)(F)F)cc2)CC1` (stereo not shown) [9-27, N-[2-(1-benzyl-3-hydroxypiperidin-4-yl)ethyl]-1-[4-(trifluoromethoxy)phenyl]piperidine-4-carboxamide], the Ki under setting [1] fell in the range of 10 to 100 nM. The same measure, in the same setting: for `O=C(NCCN[C@@H]1CCN(Cc2ccccc2)C1)C1CCN(c2ccc(OC(F)(F)F)c(F)c2)CC1` [9-28, N-(2-{[(3R)-1-benzylpyrrolidin-3-yl]amino}ethyl)-1-[3-fluoro-4-(trifluoromethoxy)phenyl]piperidine-4-carboxamide] the value was 10 to 100 nM. Same read-out and setting: under `N#Cc1ccc(N2CCC(C(=O)NCCC3CCN(Cc4ccccc4)CC3)CC2)cc1` [9-29, N-[2-(1-benzylpiperidin-4-yl)ethyl]-1-(4-cyanophenyl)piperidine-4-carboxamide] stands 10 to 100 nM.
